The text below walks through data of patent US11465998B2, “Therapeutic compounds and methods of use thereof” (Regents of the University of Minnesota, priority 2019, dated 2022).

The term EC50 denotes the midpoint of the concentration-response curve.

“Also recorded” adds a separate entry of the source. Read-outs that look alike come from different tables or passages of the source.

One test deals with T1, human NOD2 (Homo sapiens, UniProt Q9HC29).
T1 construct: host or cells: HEK293
Put plainly: human NOD2 specific reporter gene assay (NF-κB induction). Format: cell-based. The method, then:
(§1) Example 5: High-throughput screens in porcine blood: Curated compound collections were obtained from the Institute for Therapeutics Discovery & Development at the University of Minnesota. Compound transfers from source (80 nL of 10 mM stocks) to assay plates were performed using an Echo 550 acoustic liquid handler (Labcyte, Sunnyvale, Calif.). For most libraries, a target final concentration of 10 μM of compound (in a final volume of 80 μL for the assay described below) was achieved. Compound plates were hermetically sealed and stored at −80° C. until used. Fresh, heparin-anticoagulated porcine blood from healthy animals were obtained under USDA supervision from Midwest Research Swine, LLC (Glencoe, Minn.). 80 μL of hematocrit-enriched porcine blood (low-speed centrifugation, followed by resuspension in DMEM supplemented with 10% fetal bovine serum) was added to compound plates and incubated for 15 h. The following day, the plates were briefly centrifuged (100 g, 10 min), and supernatants were transferred using an automated ViaFlow 384 transfer device (Integra Biosciences Corp., Hudson, N.H.) to assay plates containing of 10^6 cells/mL of each of the following NF-κB/secreted alkaline phosphatase reporter cells suspended in HEK-Blue Detection Media: human IFN-α/β, human IFN-γ, human TNF-α/IL-1β (InvivoGen, San Diego, Calif.). NF-κB translocation was assayed spectrophotometrically using an alkaline phosphatase-specific chromogen (present in HEK-detection medium as supplied by InvivoGen) at 620 nm using a SpectraMax M4 multimode microplate reader (Molecular Devices, Sunnyvale, Calif.). Z′ factors were computed for each TLR/NOD-specific signals. Hits were defined as signals >4σ (in-plate standard deviations for test compounds above negative control means), were deconvoluted in full dose-response assays in human TLR-2/-3/-4/-5/-7/-8/-9 and NOD-1/NOD-2-specific reporter cells in liquid handler-assisted assay formats as described previously. Example 6: Murine knockout cell-lines: The following reagents were obtained through BEI Resources, NIAID, NIH: the microglial cell line derived from MAL/MyD88 double knockout Mice (NR-9904), and the macrophage cell line derived from TRIF/TRAM knockout mice (NR-9568). Example 7: Human NOD1/2-specific reporter gene assays (NF-κB induction), and TLR-2/-3/-4/-5/-7/-8/-9/STING/ISG counter-screens: The induction of NF-κB was quantified using human TLR-2/-3/-4/-5/-7/-8/-9/NOD-1/NOD-2/STING/ISG-specific, rapid-throughput, liquid handler-assisted reporter gene assays as previously described by us (Wu, W. et al. J. Med. Chem. 2010, 53, 3198-3213; Shukla, N. M. et al. J. Med. Chem. 2010, 53, 4450-4465; Agnihotri, G. et al. J. Med. Chem. 2011, 54, 1490-1510 and Ukani, R. et al. Bioorg. Med. Chem. Lett. 2012, 22, 293-295). HEK293 cells stably co-transfected with the appropriate hTLR and secreted alkaline phosphatase (sAP) were maintained in HEK-Blue™ Selection medium. Stable expression of secreted alkaline phosphatase (sAP) under control of NF-κB/AP-1/IRF promoters is inducible by appropriate innate immune stimuli, and extracellular sAP in the supernatant is proportional to NF-κB/IRF induction. Reporter cells were incubated at a density of ˜10^5 cells/ml in a volume of 80 μl/well, in 384-well, flat-bottomed, cell culture-treated microtiter plates in the presence of graded concentrations of stimuli. sAP was assayed spectrophotometrically using an alkaline phosphatase-specific chromogen (present in HEK-detection medium as supplied by InvivoGen) at 620 nm. Example 8: Multiplexed immunoassays for human cytokines: Fresh human peripheral blood mononuclear cells (hPBMC) were isolated from human blood obtained by venipuncture in Cell Preparation Tubes (CPT, Beckton-Dickinson) with informed consent and as per guidelines approved by the University of Minnesota Human Subjects Experimentation Committee. Aliquots of PBMCs or THP-1 cells (10^5 cells in 100 μL/well) were stimulated for 16 h with graded concentrations of test compounds. […]

Test [1] concerns human peripheral blood mononuclear cells (PBMCs). Put plainly: Multiplexed immunoassays for human cytokines in PBMCs. Format: cell-based. On the procedure: as §1, with “293-295).” for “293-295). HEK293 cells stably co-transfected with the appropriate hTLR and secreted alkaline phosphatase (sAP) were maintained in HEK-Blue™ Selection medium. Stable expression of secreted alkaline phosphatase (sAP) under control of NF-κB/AP-1/IRF promoters is inducible by appropriate innate immune stimuli, and extracellular sAP in the supernatant is proportional to NF-κB/IRF induction. Reporter cells were incubated at a density of ˜10^5 cells/ml in a volume of 80 μl/well, in 384-well, flat-bottomed, cell culture-treated microtiter plates in the presence of graded concentrations of stimuli. sAP was assayed spectrophotometrically using an alkaline phosphatase-specific chromogen (present in HEK-detection medium as supplied by InvivoGen) at 620 nm. Example 8: Multiplexed immunoassays for human cytokines: Fresh human peripheral blood mononuclear cells (hPBMC) were isolated from human blood obtained by venipuncture in Cell Preparation Tubes (CPT, Beckton-Dickinson) with informed consent and as per guidelines approved by the University of Minnesota Human Subjects Experimentation Committee. Aliquots of PBMCs or THP-1 cells (10^5 cells in 100 μL/well) were stimulated for 16 h with graded concentrations of test compounds.”

Setting [2] is: human NOD2 reporter gene assay, read-out: EC50 values, human NOD2 agonistic potency.
The mark [3] stands for this setting: human NOD2 specific reporter gene assay, arithmetic mean of quadruplicate samples, NA* indicates inactive under the tested conditions, read-out: hNOD2 Agonistic Activity (μM), EC50.

T1 sequence (Q9HC29 whole entry): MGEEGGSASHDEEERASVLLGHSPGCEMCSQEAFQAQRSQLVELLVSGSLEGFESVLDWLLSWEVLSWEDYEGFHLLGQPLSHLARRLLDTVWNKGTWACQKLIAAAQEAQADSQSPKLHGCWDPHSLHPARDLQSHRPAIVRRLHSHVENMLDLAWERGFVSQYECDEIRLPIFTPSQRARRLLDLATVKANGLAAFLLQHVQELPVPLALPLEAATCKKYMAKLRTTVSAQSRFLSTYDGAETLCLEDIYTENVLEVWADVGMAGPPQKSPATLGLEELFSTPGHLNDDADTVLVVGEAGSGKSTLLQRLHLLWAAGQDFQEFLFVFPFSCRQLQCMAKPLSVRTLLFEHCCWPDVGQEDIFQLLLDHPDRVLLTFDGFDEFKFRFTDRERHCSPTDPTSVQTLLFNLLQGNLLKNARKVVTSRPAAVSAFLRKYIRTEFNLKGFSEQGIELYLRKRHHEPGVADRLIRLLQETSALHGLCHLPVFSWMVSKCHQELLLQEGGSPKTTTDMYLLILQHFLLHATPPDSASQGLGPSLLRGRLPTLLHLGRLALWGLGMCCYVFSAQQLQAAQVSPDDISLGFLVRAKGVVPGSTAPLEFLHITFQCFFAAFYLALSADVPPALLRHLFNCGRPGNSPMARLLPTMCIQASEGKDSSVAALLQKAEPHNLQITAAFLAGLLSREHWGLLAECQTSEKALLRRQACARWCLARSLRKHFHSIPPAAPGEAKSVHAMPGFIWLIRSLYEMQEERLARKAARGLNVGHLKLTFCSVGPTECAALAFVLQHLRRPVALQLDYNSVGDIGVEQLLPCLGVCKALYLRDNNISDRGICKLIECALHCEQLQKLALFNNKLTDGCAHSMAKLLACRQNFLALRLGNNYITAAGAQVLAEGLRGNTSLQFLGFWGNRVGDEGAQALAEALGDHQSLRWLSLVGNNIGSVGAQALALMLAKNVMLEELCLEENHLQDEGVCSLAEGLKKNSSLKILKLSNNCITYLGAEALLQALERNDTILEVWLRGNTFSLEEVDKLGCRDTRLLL

As to `CCCCCc1nc2ccccc2n1-c1csc(C(N)=O)c1` [Compound 7e, 4-(2-Pentyl-1H-benzo[d]imidazol-1-yl)thiophene-2-carboxamide], the EC50 is 0.68 µM at human NOD2 (setting [2]) and 0.684 µM on human NOD2 (setting [3]). Besides, the “induction of chemokines and cytokines” value in test [1] is “None of the small molecules (including 1, as well as the optimized, equipotent analogues 7e and 7f) showed any activity; also recorded: absence of induction of chemokines and cytokines”.

For the compound `CCCCCCc1nc2ccccc2n1-c1csc(C(N)=O)c1` [Compound 7f, 4-(2-Hexyl-1H-benzo[d]imidazol-1-yl)thiophene-2-carboxamide], the EC50 amounted to 0.66 µM on human NOD2 (setting [2]) and 0.664 µM on human NOD2 (setting [3]). Moreover, the “induction of chemokines and cytokines” value in test [1] was “None of the small molecules (including 1, as well as the optimized, equipotent analogues 7e and 7f) showed any activity; also recorded: essentially identical to that of 7e”.
